{
  "source": "paper PMC9331863",
  "about": "(Antibiotics, 2022)",
  "key": {"[1]": {"assay": "Population pharmacokinetic modelling of dalbavancin plasma concentrations (TDM) in patients", "settings": "for Q, inter-compartmental clearance / V1, central volume of distribution / V2, peripheral volume of distribution: typical value (%RSE)", "description": "The study was approved by the local Ethics Committee (registration number 897/2021/Oss/AOUBo). Signed informed consent was waived due to the retrospective and observational nature of the investigation according to hospital agreements.\nThe dose amount (1000 mg or 1500 mg) was arbitrarily decided by the infectious diseases consultant at each patient center. The decision to administer any additional doses was taken in relation to the clinical evaluation of disease progression after at least 4 weeks from the administration of the second dose and it was based on the patient’s physical examination and on the trend of inflammatory biomarkers.\nBlood samples were collected at different time-points after the second dose and sent to our lab for analysis. […] The lower limit of quantification was 0.5 mg/L.\nAt a first stage, a basic model was developed, by comparing one-, two- and three-compartment models with linear elimination. All individual parameters were log-normally distributed. Exponential random effects were assumed to describe inter-individual variability. Correlations between random effects were tested in the variance–covariance matrix and implemented into the structural model accordingly. Residual variability was tested according to three different error models (constant, proportional and combined error model).\nThe following covariates were tested on the PK parameters of the base model: age, gender, weight, height, serum albumin, serum creatinine and CLCR. The parameter–covariate relationships were modeled as additive or proportional shifts from the reference category for binary covariates, whereas the effect of continuous covariates was modeled using a power function. A covariate was included in the model according to the results of the likelihood ratio test (LRT) and if a reduction in the BIC and a decrease in the interpatient variability of the fixed-effect parameters were obtained. Descriptions of the pharmacokinetic model building and covariate analysis are reported in the Supplementary Materials."}, "[2]": {"settings": "cited from earlier work"}, "[3]": {"settings": "real-world use beyond approved indications, outpatient antimicrobial treatment; cited from earlier work"}, "[4]": {"settings": "cited from earlier work", "remark": "listed apart in the source", "excerpt": "Data were retrieved from registrative phase II/III clinical trials."}, "[5]": {"settings": "median (min–max) of population, 69 patients, two-compartment final model"}, "[6]": {"settings": "three-compartment model, 703 patients with ABSSSI, ref Carrothers et al. [12]"}},
  "note": "Where two headings read alike, the source gives them in different places.",
  "data": [
    {"smiles": "CN[C@H]1C(=O)N[C@@H]2Cc3ccc(cc3)Oc3cc4cc(c3O[C@@H]3O[C@H](C(=O)O)[C@@H](O)[C@H](O)[C@H]3NC(=O)CCCCCCCCC(C)C)Oc3ccc(cc3Cl)[C@@H](O)[C@@H]3NC(=O)[C@H](NC(=O)[C@@H]4NC(=O)[C@@H](NC2=O)c2cc(cc(O)c2Cl)Oc2cc1ccc2O)c1ccc(O)c(c1)-c1c(O[C@H]2O[C@H](CO)[C@@H](O)[C@H](O)[C@@H]2O)cc(O)cc1[C@@H](C(=O)NCCCN(C)C)NC3=O", "note": "[dalbavancin]", "values": [
      {"measurement": "Q, inter-compartmental clearance", "setting": "[1]; base model", "result": "0.026 (17.9) L/h"},
      {"measurement": "V1, central volume of distribution", "setting": "[1]; base model", "result": "6.15 (4.79) L"},
      {"measurement": "V2, peripheral volume of distribution", "setting": "[1]; base model", "result": "10.51 (13.7) L"},
      {"measurement": "Q, inter-compartmental clearance", "setting": "[1]; final model", "result": "0.026 (18.1) L/h"},
      {"measurement": "V1, central volume of distribution", "setting": "[1]; final model", "result": "6.14 (5.26) L"},
      {"measurement": "V2, peripheral volume of distribution", "setting": "[1]; final model", "result": "9.52 (19.0) L"},
      {"measurement": "CL, total body clearance", "setting": "[1]; human, in vivo", "result": "0.029 (11.6) L/h"},
      {"measurement": "Vd", "setting": "[1]; human, in vivo", "result": 15.7, "unit": "L"},
      {"measurement": "clearance", "setting": "[1]; human, in vivo, CL, total body clearance", "result": 0.683, "unit": "mL/min"},
      {"measurement": "clearance", "setting": "[1]; human, in vivo, population CL", "result": 0.717, "unit": "mL/min"},
      {"measurement": "population V1", "setting": "[1]; [5]", "result": "6.21 (5.10–7.19) L"},
      {"measurement": "population V2", "setting": "[1]; [5]", "result": "9.48 (7.60–11.89) L"},
      {"measurement": "penetration rate into bone tissue", "setting": "[2]", "result": 13.1, "unit": "%"},
      {"measurement": "overall clinical success rate", "setting": "[3]", "result": "greater than 80%"},
      {"measurement": "elimination half-life", "setting": "[4]", "result": "> 180", "unit": "h"},
      {"measurement": "population CL", "setting": "[4]; [6]", "result": 0.053, "unit": "L/h"},
      {"measurement": "total V", "setting": "[4]; [6]", "result": 15.0, "unit": "L"},
      {"measurement": "population CL", "setting": "[4]; two-compartment model, 532 patients (ABSSSI, bloodstream infections), ref Buckwalter et al. [11]", "result": 0.057, "unit": "L/h"},
      {"measurement": "total V", "setting": "[4]; two-compartment model, 532 patients, ref Buckwalter et al. [11]", "result": 15.9, "unit": "L"}
    ]}
  ]
}
